Values joined by “and” are separate entries in the source; they are usually repeats but may differ in a detail not shown here. Equal values may be shown once.
What was measured:
[1] = tested on: P. falciparum TM91C235 (Thailand, multidrug-resistant (MDR) strain); experiment: Malaria SYBR Green Fluorescence Assay, TM91C235 strain; type: cell-based; settings: Plasmodium falciparum, read-out: In Vitro Antimalarial Activity (P. falciparum, IC50, nM) C235
[2] = tested on: P. falciparum W2 (CQ resistant (CQR) strain); experiment: microbe, parasite or virus in culture; type: cell-based, Plasmodium falciparum; settings: for RI W2/D6 (resistance index): IC50 W2 / IC50 D6; for IC50: Plasmodium falciparum, W2, read-out: In Vitro Antimalarial Activity (P. falciparum, IC50, nM) W2
[3] = tested on: HepG2 (hepatocellular carcinoma) cell line; experiment: Compound toxicity in HepG2 cell line; type: cell-based, human; settings: for IC50: Homo sapiens, HepG2, hepatocellular carcinoma cells; for SI HepG2/D6 (selectivity index): IC50 HepG2 / IC50 D6
Protocol: To investigate possible toxicity issues, the synthesized compounds were evaluated in vitro against a human hepatoma cell line (HepG2).
Synthesized aminoquinolines were screened in vitro against P. falciparum strains: CQ and MFQ susceptible strain D6 (clone of Sierra Leone/UNC isolate), CQ resistant but MFQ susceptible strain W2 (clone of Indochina isolate), and CQ and MFQ resistant strain TM91C235 (clone of South East Asian isolate) using the Malaria SYBR Green Fluorescence Assay. Full method details are given in Supplementary Materials I. Assessment of compound toxicity in a HepG2 (hepatocellular carcinoma) cell line followed the protocol described in Ref. [40].

[4] = tested on: P. falciparum D6 (CQ susceptible (CQS) strain); experiment: Malaria SYBR Green Fluorescence Assay, D6 strain; type: cell-based; settings: Plasmodium falciparum; CQ susceptible African D6 clone; read-out: In Vitro Antimalarial Activity (P. falciparum, IC50, nM) D6
healthy mice = experiment: Host toxicity study in healthy mice; type: in vivo; settings: 160 mg/kg/day × 3 days; for Mice survived in host toxicity study: groups of 5 healthy mice; for Host toxicity (toxic / non-toxic): healthy mice, orally
Protocol: In a separate host toxicity study, groups of five healthy mice were administered 160 mg/kg/day × 3 days of the investigational compounds and individually monitored for behavior and appearance two times a day for 31 days. No toxicity was defined as survival past day 31 with no overt clinical manifestations of toxicity (changes in behavior and appearance).

P. berghei (ANKA) = experiment: Modified Thompson test, P. berghei mouse efficacy; type: in vivo, Plasmodium berghei; settings: for Parasitemia D21: day 21; for Mean Survival Time (MST, Days) / Mice Alive on Day 31 / Mice Dead/Day Died: infected mice; for Parasitemia D25: day 25
Protocol: In a separate host toxicity study, benzothiophene 25 was subjected to in vivo toxicity evaluation. […]
The P. berghei (ANKA) mouse efficacy tests were conducted using a modified version of the Thompson test. Groups of five mice were inoculated intraperitoneally with erythrocytes infected with P. berghei on day 0. Drugs were suspended in 0.5% hydroxyethylcellulose-0.1% Tween 80 and administered orally once a day beginning on day 3 post infection. […] Cure was defined as survival (with no parasitemia) until day 31 post-treatment. Parasitemia was determined by thin-blood Giemsa-stained smears prepared from mice tail blood of each animal on days 0, 3, 6, 10, 13, 17, 20, 24, 27, and 31 (postinfection). The slides were examined under a light microscope.

[5] = 160 mg/kg/day p.o., days 3–5 postinfection
[6] = 160 mg/kg/day p.o., days 3–5 postinfection, 160 mg/kg/day
[7] = 40 mg/kg/day p.o., days 3–6 postinfection
[8] = 80 mg/kg/day p.o., days 3–6 postinfection

SMILES | IC50 [1] | RI W2/D6 (resistance index) [2] | IC50 [2] | IC50 [3] | IC50 [4] | SI HepG2/D6 (selectivity index) [3] | other results
N#Cc1ccc(-c2ccc(-c3ccc(CNCCNc4ccnc5cc(Cl)ccc45)cc3)s2)cc1 [Compound 37] | 60 nM | 0.5 | 26 nM | > 30600 nM | 49 nM |  | 
CC(CCCNCc1ccc(-c2csc3ccc(F)cc23)cc1)Nc1ccnc2cc(Cl)ccc12 (stereo not shown) [Compound 25] | 121 nM | 0.2 | 12 nM | 2090 nM | 71 nM | 29 | Mice survived in host toxicity study (healthy mice): 5; Host toxicity (toxic / non-toxic) (healthy mice): non-toxic; Parasitemia D21 (P. berghei (ANKA); 160 mg/kg/day p.o. days 3–5): 2.7%; Parasitemia D24 (P. berghei (ANKA); 160 mg/kg/day p.o. days 3–5, day 24): 52%; Parasitemia D28 (P. berghei (ANKA); 160 mg/kg/day p.o. days 3–5, day 28): 72%; Parasitemia D31 (P. berghei (ANKA); 160 mg/kg/day p.o. days 3–5, day 31 (end of study)): 79%; Mean Survival Time (MST, Days) (P. berghei (ANKA); [5]): 20.8 days; Mice Alive on Day 31 (P. berghei (ANKA); [6]): only one surviving 31 days but with parasitemia and 1/4; Mice Dead/Day Died (P. berghei (ANKA); [6]): 2/17 and 1/18
N#Cc1ccc2scc(-c3ccc(CNCCCCCCNc4ccnc5ccccc45)cc3)c2c1 [Compound 30] | 51 nM | 6.8 | 81 nM | 1980 nM | 12 nM | 162 | 
N#Cc1ccc(-c2ccc(-c3ccc(CNCCCCNc4ccnc5cc(Cl)ccc45)cc3)s2)cc1 [Compound 39] | 52 nM | 0.8 | 46 nM | > 5790 nM | 59 nM |  | 
CC(CCCNCc1ccc(-c2csc3ccc(F)cc23)cc1)Nc1ccnc2ccccc12 (stereo not shown) [Compound 26] | 45 nM | 1.5 | 55 nM | 2340 nM | 36 nM | 65 | 
N#Cc1ccc2c(-c3ccc(CNCCCCNc4ccnc5ccccc45)cc3)csc2c1 [Compound 31] | 93 nM | 15.2 | 197 nM | 3580 nM | 13 nM | 276 | 
CN(CCCCCCCCNc1ccnc2ccccc12)Cc1ccc(-c2ccc(-c3ccc(C#N)cc3)s2)cc1 [Compound 46] | 13 nM | 0.7 | 5 nM | 2570 nM | 7 nM | 367 | Mice survived in host toxicity study (healthy mice): 5; Host toxicity (toxic / non-toxic) (healthy mice): non-toxic; Parasitemia D25 (P. berghei (ANKA); 40 mg/kg/day p.o. days 3–6): 43%; Parasitemia D14 (P. berghei (ANKA); 80 mg/kg/day p.o. days 3–6, day 14): 4.7%; Parasitemia D18 (P. berghei (ANKA); 80 mg/kg/day p.o. days 3–6, day 18): 12%; Parasitemia D21 (P. berghei (ANKA); 80 mg/kg/day p.o. days 3–6): 35%; Parasitemia D25 (P. berghei (ANKA); 80 mg/kg/day p.o. days 3–6): 41%; One mouse survival until day (P. berghei (ANKA); 80 and 40 mg/kg/day × 4 days (both doses)): 25 days; Mean Survival Time (MST, Days) (P. berghei (ANKA); [7]): 15.8 days; Mice Alive on Day 31 (P. berghei (ANKA); [7]): 0/5; Mice Dead/Day Died (P. berghei (ANKA); 40 mg/kg/day p.o., days 3–6 postinfection, 40 mg/kg/day): 1/10 and 2/11 and 1/22 and 1/25; Mean Survival Time (MST, Days) (P. berghei (ANKA); [8]): 14.4 days; Mice Alive on Day 31 (P. berghei (ANKA); [8]): 0/5; Mice Dead/Day Died (P. berghei (ANKA); 80 mg/kg/day p.o., days 3–6 postinfection, 80 mg/kg/day): 1/7 and 1/12 and 1/13 and 1/14 and 1/26
N#Cc1ccc2scc(-c3ccc(CNCCCCNc4ccnc5ccccc45)cc3)c2c1 [Compound 28] | 129 nM | 31.3 | 188 nM | 2580 nM | 6 nM | 401 | 
N#Cc1ccc(-c2ccc(-c3ccc(CNCCCCNc4ccnc5ccccc45)cc3)s2)cc1 [Compound 43] | 34 nM | 26 | 106 nM | 8150 nM | 4 nM | 2038 | 
CCN(CC)CCCC(C)Nc1ccnc2cc(Cl)ccc12 (stereo not shown) [CQ, chloroquine, reference compound] | 206 nM |  | 595 nM |  | 15 nM |  | Parasitemia D6-D31 (P. berghei (ANKA); 160 mg/kg/day p.o. days 3–5, days 6–31): 5 mice negative; Mean Survival Time (MST, Days) (P. berghei (ANKA); [5]): >31 days; Mice Alive on Day 31 (P. berghei (ANKA); [5]): 5/5
Fc1ccc2scc(-c3ccc(CNCCCCCCNc4ccnc5ccccc45)cc3)c2c1 [Compound 24] | 242 nM | 4.6 | 277 nM | 2230 nM | 60 nM | 37 | 
N#Cc1ccc(-c2ccc(-c3ccc(CNCCCCCCNc4ccnc5ccccc45)cc3)s2)cc1 [Compound 44] | 54 nM | 0.7 | 74 nM | 4080 nM | 101 nM | 40 | 
N#Cc1ccc(-c2ccc(-c3ccc(CNCCCCCCNc4ccnc5cc(Cl)ccc45)cc3)s2)cc1 [Compound 41] | 20 nM | 0.5 | 13 nM | 2420 nM | 27 nM | 89 | 
C#Cc1ccc(-c2ccc(-c3ccc(CNCCCCCCCCNc4ccnc5ccccc45)cc3)s2)cc1 [Compound 52] | 274 nM | 1.5 | 259 nM | 9230 nM | 177 nM | 52 | 
CC(CCCN(C)Cc1ccc(-c2csc3ccc(F)cc23)cc1)Nc1ccnc2ccccc12 (stereo not shown) [Compound 27] | 126 nM | 4.3 | 126 nM | 5000 nM | 29 nM | 173 | 
N#Cc1ccc2c(-c3ccc(CNCCCCCCNc4ccnc5ccccc45)cc3)csc2c1 [Compound 32] | 29 nM | 1.8 | 102 nM | 2050 nM | 55 nM | 37 | 
N#Cc1ccc(-c2ccc(-c3ccc(CNCCCNc4ccnc5cc(Cl)ccc45)cc3)s2)cc1 [Compound 38] | 43 nM | 0.2 | 20 nM | 2560 nM | 84 nM | 30 | 
Fc1ccc2scc(CNCCCCNc3ccnc4ccccc34)c2c1 [Compound 13] | 177 nM | 12.6 | 201 nM | 2730 nM | 16 nM | 172 | 
Fc1ccc2c(CNCCCNc3ccnc4ccccc34)csc2c1 [Compound 12] | 191 nM | 8.8 | 185 nM | 4480 nM | 21 nM | 211 | 
c1ccc2sc(CNCCCCNc3ccnc4ccccc34)cc2c1 [Compound 9] | 205 nM | 13.6 | 191 nM | 4870 nM | 14 nM | 339 | 
N#Cc1ccc(-c2ccc(-c3ccc(CNCCCCCNc4ccnc5cc(Cl)ccc45)cc3)s2)cc1 [Compound 40] | 54 nM | 0.5 | 41 nM | 6700 nM | 80 nM | 84 | 
CC(CCCNCc1ccc(-c2csc3ccc(C#N)cc23)cc1)Nc1ccnc2ccccc12 (stereo not shown) [Compound 29] | 46 nM | 3.4 | 44 nM | 2410 nM | 13 nM | 192 | 
c1ccc2sc(CNCCCNc3ccnc4ccccc34)cc2c1 [Compound 8] | 107 nM | 5.2 | 104 nM | 8870 nM | 20 nM | 440 | 
Fc1ccc2scc(-c3ccc(CNCCCNc4ccnc5ccccc45)cc3)c2c1 [Compound 23] | 111 nM | 5.1 | 144 nM | 3820 nM | 28 nM | 136 | 
OC(c1cc(C(F)(F)F)nc2c(C(F)(F)F)cccc12)C1CCCCN1 (stereo not shown) [MFQ, mefloquine, reference compound] | 55 nM | 0.3 | 7 nM |  | 23 nM |  | 

Source: paper PMC6155332, “Antimalarials with Benzothiophene Moieties as Aminoquinoline Partners” (Molecules : A Journal of Synthetic Chemistry and Natural …, 2017)
